pIC50: −log10 of the molar value. “And” between values parts separate entries of the source, which are not always exact repeats. Equal values may be shown once.
System: SYO-1 complex spheroid growth, percent test/control
Assay: Anticancer human tumor SYO-1 cell line growth inhibition [Asc];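 also: compound exposure lasted 7 days after spheroids grew 3 days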;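 as to viability, T/C: 100% = DMSO vehicle control viability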
Details: for viability, T/C: stronger effect = lower value
Procedure, shortened: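 Complex spheroids combining tumor cells with HUVEC endothelial cells and human MSCs, at 37 degrees C, 5% CO2; agents tested alone or combined, half-log dilutions from at or near clinical Cmax, or 10 microM if Cmax unknown.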

[1] = curve of first compound, second compound 0.0316 µM
[2] = curve of first compound, second compound 0.1 µM
[3] = curve of first compound, second compound 0.316 µM
[4] = curve of first compound, second compound 1 µM
[5] = second compound 0.0316 µM, first compound 0.0316 µM
[6] = second compound 0.0316 µM, first compound 0.1 µM
[7] = second compound 0.0316 µM, first compound 0.316 µM
[8] = second compound 0.0316 µM, first compound 1 µM
[9] = second compound 0.0316 µM, first compound 3.16 µM
[10] = second compound 0.0316 µM, first compound 10 µM
[11] = second compound 0.1 µM, first compound 0.0316 µM
[12] = second compound 0.1 µM, first compound 0.1 µM
[13] = second compound 0.1 µM, first compound 0.316 µM
[14] = second compound 0.1 µM, first compound 1 µM
[15] = second compound 0.1 µM, first compound 3.16 µM
[16] = second compound 0.1 µM, first compound 10 µM
[17] = second compound 0.316 µM, first compound 0.0316 µM
[18] = second compound 0.316 µM, first compound 0.1 µM
[19] = second compound 0.316 µM, first compound 0.316 µM
[20] = second compound 0.316 µM, first compound 1 µM
[21] = second compound 0.316 µM, first compound 3.16 µM
[22] = second compound 0.316 µM, first compound 10 µM
[23] = second compound 1 µM, first compound 0.0316 µM
[24] = second compound 1 µM, first compound 0.1 µM
[25] = second compound 1 µM, first compound 0.316 µM
[26] = second compound 1 µM, first compound 1 µM
[27] = second compound 1 µM, first compound 3.16 µM
[28] = second compound 1 µM, first compound 10 µM

With `C=C(F)C(=O)N1CCN(c2nc(OCC3CCCN3C)nc3c2CCN(c2cccc4cccc(Cl)c24)C3)CC1CC#N` (stereo unspecified) + Cc1c(S(C)(=O)=O)c(-c2cc(F)cc(N3CCN(c4ccc(NS(=O)(=O)c5ccc(NC(CCN6CCC(C(=O)OCCCP(=O)(O)O)CC6)CSc6ccccc6)c(S(=O)(=O)C(F)(F)F)c5)cc4)CC3)c2)c(-c2ccc(Cl)cc2)n1C(C)C the pIC50 [1] was 5.31, the pIC50 [2] was 5.47 and the pIC50 [3] was 5.76. For the same compound, the pIC50 [4] was 5.76, the pIC50 (curve of first compound, second compound 3.16 µM) was 5.78 and the pIC50 (curve of first compound, second compound 10 µM) was 5.80. For the same compound, the viability, T/C [5] was 97.2%, the viability, T/C [6] was 87.6% and the viability, T/C [7] was 97.8%. The viability, T/C [8] was 101%, the viability, T/C [9] was 81.6% and the viability, T/C [10] was 0.62%. The viability, T/C [11] was 92.7%, the viability, T/C [12] was 96.7% and the viability, T/C [13] was 96.3%. For the same compound, the viability, T/C [14] was 98.3%, the viability, T/C [15] was 52.8% and the viability, T/C [16] was 0.77%. The viability, T/C [17] was 98.8%, the viability, T/C [18] was 97% and the viability, T/C [19] was 97.3%. The viability, T/C [20] was 95.1%, the viability, T/C [21] was 1.32% and the viability, T/C [22] was 0.42%. For the same compound, the viability, T/C [23] was 89.6%, the viability, T/C [24] was 89.7% and the viability, T/C [25] was 88.4%. For the same compound, the viability, T/C [26] was 109%, the viability, T/C [27] was 0.8% and the viability, T/C [28] was 1.26%. The viability, T/C (second compound 3.16 µM, first compound 0.0316 µM) was 92.9%, the viability, T/C (second compound 3.16 µM, first compound 0.1 µM) was 78.6% and the viability, T/C (second compound 3.16 µM, first compound 0.316 µM) was 87.8%. The viability, T/C (second compound 3.16 µM, first compound 1 µM) was 97.6%, the viability, T/C (second compound 3.16 µM, first compound 3.16 µM) was 0.94% and the viability, T/C (second compound 3.16 µM, first compound 10 µM) was 1.06%. It also gave a viability, T/C (second compound 10 µM, first compound 0.0316 µM) of 89.5%, a viability, T/C (second compound 10 µM, first compound 0.1 µM) of 78.9% and a viability, T/C (second compound 10 µM, first compound 0.316 µM) of 71.5%. The viability, T/C (second compound 10 µM, first compound 1 µM) was 91.6%, the viability, T/C (second compound 10 µM, first compound 3.16 µM) was 0.9% and the viability, T/C (second compound 10 µM, first compound 10 µM) was 0.74%.

Work on `C#Cc1c(F)ccc2cc(O)cc(-c3ncc4c(N5CC6CCC(C5)N6)nc(OCC56CCCN5CC(F)C6)nc4c3F)c12` (stereo unspecified) + CNC(C)C(=O)NC1CN(S(=O)(=O)c2cccc(S(=O)(=O)N3CCC4CCC(C(=O)NC(c5ccccc5)c5ccccc5)N4C(=O)C(NC(=O)C(C)NC)C3)c2)CCC2CCC(C(=O)NC(c3ccccc3)c3ccccc3)N2C1=O yielded a pIC50 (curve of first compound, second compound 0.00316 µM) of under 5.00, a pIC50 (curve of first compound, second compound 0.01 µM) of under 5.00 and a pIC50 [1] of under 5.00. For the same compound, the pIC50 [2] was under 5.00, the pIC50 [3] was under 5.00 and the pIC50 [4] was under 5.00. For the same compound, the viability, T/C (second compound 0.00316 µM, first compound 0.0316 µM) was 106%, the viability, T/C (second compound 0.00316 µM, first compound 0.1 µM) was 102% and the viability, T/C (second compound 0.00316 µM, first compound 0.316 µM) was 101%. It also gave a viability, T/C (second compound 0.00316 µM, first compound 1 µM) of 103%, a viability, T/C (second compound 0.00316 µM, first compound 3.16 µM) of 110% and a viability, T/C (second compound 0.00316 µM, first compound 10 µM) of 106%. The viability, T/C (second compound 0.01 µM, first compound 0.0316 µM) was 104%, the viability, T/C (second compound 0.01 µM, first compound 0.1 µM) was 93.3% and the viability, T/C (second compound 0.01 µM, first compound 0.316 µM) was 102%. It also gave a viability, T/C (second compound 0.01 µM, first compound 1 µM) of 108%, a viability, T/C (second compound 0.01 µM, first compound 3.16 µM) of 112% and a viability, T/C (second compound 0.01 µM, first compound 10 µM) of 105%. The viability, T/C [5] was 96.8%, the viability, T/C [6] was 106% and the viability, T/C [7] was 101%. It also gave a viability, T/C [8] of 106%, a viability, T/C [9] of 106% and a viability, T/C [10] of 106%. For the same compound, the viability, T/C [11] was 111%, the viability, T/C [12] was 97.5% and the viability, T/C [13] was 105%. For the same compound, the viability, T/C [14] was 111%, the viability, T/C [15] was 120% and the viability, T/C [16] was 99.6%. It also gave a viability, T/C [17] of 98.7%, a viability, T/C [18] of 99.1% and a viability, T/C [19] of 108%. For the same compound, the viability, T/C [20] was 108%, the viability, T/C [21] was 116% and the viability, T/C [22] was 102%. The viability, T/C [23] was 99.7%, the viability, T/C [24] was 106% and the viability, T/C [25] was 106%. The viability, T/C [26] was 103%, the viability, T/C [27] was 106% and the viability, T/C [28] was 105%.

`CCN1CCN(Cc2ccc(Nc3ncc(F)c(-c4cc(F)c5nc(C)n(C(C)C)c5c4)n3)nc2)CC1` was tested, and the viability, T/C (compound 0.00316 µM) was 103% (2×) and 101%, the viability, T/C (compound 0.01 µM) was 99.9% and 103% and 110% and the viability, T/C (compound 0.0316 µM) was 107% and 106% and 109%. For the same compound, the viability, T/C (compound 0.1 µM) was 114% and 118% and 115%, the viability, T/C (compound 0.316 µM) was 115% and 128% and 112% and the viability, T/C (compound 1 µM) was 106% and 111% and 112%. The pIC50 (curve of compound) was under 6.00.
